Reference: US10624871B2, “Bismuth(III) compounds and methods thereof” (priority 2016, dated 2020)

What was measured:
NDM-1 [1] = molecular target: T1, NDM-1 (Klebsiella pneumoniae, UniProt C7C422); experiment: IC50 enzyme inhibition assay, MER hydrolysis; type: biochemical; conditions: Zn2-NDM-1 50 nM, 1 h preincubation at 25° C., 100 μM MER
From the text: (§1) […]. The initial rate were extracted and calculated from each reaction curves.

VIM-2 = VIM-2 (Escherichia coli, UniProt Q5U7L7); experiment: IC50 enzyme inhibition assay, MER hydrolysis; type: biochemical; conditions: Zn2-VIM-2, 1 h preincubation at 25° C., 100 μM MER
From the text: as §1

NDM-1 [2] = molecular target: T1, NDM-1; experiment: Zn(II) displacement by Bi(III) using ICP-MS; type: binding; conditions: Zn2-NDM-1 20 μM incubated with CBS, 25° C., 5 hrs
Description: To monitor the replacement of Zn(II) by Bi(III), inductively-coupled plasma mass spectrometry (ICP-MS) was employed to accurately quantify ^209Bi and ^66Zn contents in various purified NDM-1 samples. Purified Zn2-NDM-1 was prepared as described previously and was dissolved in trace-metal-free ICP-MS buffer containing 50 mM HEPES, pH 7.0 through cycles of buffer washing using an Amicon Ultra-15 Centrifugal Filter Devices with 3 kDa cut-off. Zn2-NDM-1 (20 μM) was incubated with various concentrations of CBS at 25° C. for 5 hrs with mild shaking. The samples were subsequently dialyzed in ICP-MS buffer to remove unbound-metal ions and were acidified with 10% (v/v) nitric acid for 1 h with gentle heating for releasing the bound metal ions from the protein for ICP analysis. The samples were then mixed with 115In as an internal standard to reach a final concentration of 10 ppb in 1% HNO3. After calibration with the isotope standards ^209Bi, ^66Zn and ^34S from Sigma, the samples were subsequently injected into a quadrupole-based inductively coupled plasma mass spectrometer (Agilent 7500a, Agilent Technologies, CA, USA). ^209Bi, ^66Zn and ^34S isotopes abundances were determined simultaneously by integration of peak areas using the build-in software from the instrument so that ^34S abundance serves as a way for quantifying protein concentration in each sample.

E. coli (NDM-1+) [3] = experiment: Microdilution MIC and MBC assay, checkerboard FICI; type: cell-based; conditions: Bi(III) compound at 32 μg mL^−1, E. coli (NDM-1+)
K. pneumonia (NDM-1+) = experiment: Microdilution MIC and MBC assay, FICI; type: cell-based; conditions: Bi(III) compound at 32 μg mL^−1, K. pneumonia (NDM-1+)
E. coli (NDM-1+) [4] = experiment: Time kill assay; type: cell-based; conditions: combination 16 μg mL^−1 MER and 32 μg mL−1 CBS, endpoint 24 hrs
Description: Time kill assay was used to further explore the synergy between MER and Bi(III) compounds which were represented by CBS herein. In a typical assay, the concentrations of the compounds used in this test represent as follows: 16 μg mL^−1 MER, 32 μg mL−1 CBS. Bacteria were cultured for overnight and diluted 1:250 into LB broth at 37° C. for 3 hrs to reach log phase. The initial bacterial concentration was adjusted to ˜10^7 CFU mL^−1 according to standard curve. Tested compounds either alone or in combination was added to 20 mL of freshly prepared bacterial solution in a 50 ml tube, and incubate at 37° C. LB broth with no compounds served as a positive control. Aliquots of […] suspension were withdrawn after different time intervals (0, 1, 2, 4, 6, 8, and 24 hrs). Bacterial concentrations were estimated from colony counts by serial dilution in phosphate-buffered saline (PBS) and plating on LB agar. All assays were triplicated and performed three times in different days. Data from three independent experiments were averaged and plotted as log10 CFU mL^−1 versus time (h) for each time point over 24 hrs as shown in FIG. 12.

E. coli cells (NDM+) = experiment: Resistance study, mutation frequency and MPC; type: cell-based
From the text: Given the very notion of MIC, all susceptible bacterial cells will be suppressed or killed by a dose above it. However, bacterial population is often large; an infection will likely contain first-step mutants with lowed susceptibility. Thus, the dose of compounds at MIC will adversely amplify the population of those less-susceptible mutants.^26 Thus mutant prevention concentration (MPC), defined as a compound concentration that suppresses the growth of first-step resistant mutant in large quantity of susceptible bacterial population, together with mutant prevention index (MPI=MPC/MIC), is introduced to estimate the mutant prevention ability of exemplary compound combination.
For a typical test, E. coli cells (NDM^+) at 1˜2×10^10 CFU were spread onto LB agar containing combinations of MER and CBS at identical concentrations. All the plates were incubated at 37° C. Upon incubation for 48 hrs, up to 4 colonies were picked and re-cultured from any plates with observable colonies, followed by the measurement of their MIC values. Any MICs of MER that were higher than the original values (16 μg mL^−1) were determined as mutant colony. The concentration that restricted the growth of mutant colonies was determined as MPC.

T1 sequence (C7C422 whole entry, looked up): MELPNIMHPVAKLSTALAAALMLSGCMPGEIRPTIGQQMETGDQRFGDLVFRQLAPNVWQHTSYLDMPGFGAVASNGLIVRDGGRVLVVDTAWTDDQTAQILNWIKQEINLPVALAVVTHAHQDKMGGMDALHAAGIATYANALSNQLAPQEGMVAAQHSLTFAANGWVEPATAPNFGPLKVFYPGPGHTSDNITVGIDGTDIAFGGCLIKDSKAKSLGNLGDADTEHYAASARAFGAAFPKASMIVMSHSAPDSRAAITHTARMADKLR

`O=C([O-])CC([O-])(CC(=O)[O-])C(=O)[O-].O=C([O-])CC([O-])(CC(=O)[O-])C(=O)[O-].[Bi+3].[Bi+3].[K+]` [Complex 10, colloidal bismuth subcitrate] was tested, and the IC50 (NDM-1 [1]) was 5.83 ± 0.53 µM, the IC50 (VIM-2) was 44.5 ± 3.94 µM and the “Bi(III) bound to NDM-1” value (NDM-1 [2]) was 0.96 equivalent. For the same compound, the “Zn(II) replaced from NDM-1” value (NDM-1 [2]) was 2.13 molar equivalents, the “MBC of MER with Bi(III) compound” value (E. coli (NDM-1+) [3]) was 4 µg/mL and the “MIC of MER with Bi(III) compound” value (E. coli (NDM-1+) [3]) was 2 µg/mL. For the same compound, the “MBC of MER with Bi(III) compound” value (K. pneumonia (NDM-1+)) was 8 µg/mL, the “MIC of MER with Bi(III) compound” value (K. pneumonia (NDM-1+)) was 4 µg/mL and the “lowering of bacteria density versus single components” value (E. coli (NDM-1+) [4]) was “more than 1000 fold”. The mutation frequency (E. coli cells (NDM+); MER with CBS at 32, MIC multiple 0.5) was >5.22 × 10^−8, the mutation frequency (E. coli cells (NDM+); MER with CBS at 32, MIC multiple 1) was 4.10 × 10^−8 and the mutation frequency (E. coli cells (NDM+); MER with CBS at 32, MIC multiple 2) was 3.28 × 10^−9. For the same compound, the mutation frequency (E. coli cells (NDM+); MER with CBS at 64, MIC multiple 0.5) was 1.23 × 10^−8, the mutation frequency (E. coli cells (NDM+); MER with CBS at 64, MIC multiple 1) was 1.15 × 10^−9 and the mutation frequency (E. coli cells (NDM+); MER with CBS at 128, MIC multiple 0.5) was 9.84 × 10^−10. The mutation frequency (E. coli cells (NDM+); MER with CBS at 256, MIC multiple 0.5) was 1.31 × 10^−9.
